Data taken from PubChem BioAssay AID1963866 (Molecular Pharmacology Branch, DTP, NCI, 2024).

System: PDC KRAS tumor spheroids with HUVEC/MSC, viability
Test: Anticancer human tumor 349418-098-R-PDC patient-derived lung adenocarcinoma cell line growth inhibition [KRAS2]
Conditions: for IC50: curve of first compound; for viability, T/C: stronger effect = lower value
In short: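 KRAS-mutant tumor cells were grown as spheroids with HUVEC endothelial cells and human MSCs as stroma. Targeted agents were tested alone and with KRAS pathway inhibitors. Doses started at or near clinical Cmax, or 10 microM, descending half-log.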

[1] = second compound 0.1 µM, first compound 0.0316 µM
[2] = second compound 0.1 µM, first compound 0.1 µM
[3] = second compound 0.1 µM, first compound 0.316 µM
[4] = second compound 0.1 µM, first compound 1 µM
[5] = second compound 0.1 µM, first compound 3.16 µM
[6] = second compound 0.1 µM, first compound 10 µM
[7] = second compound 0.316 µM, first compound 0.0316 µM
[8] = second compound 0.316 µM, first compound 0.1 µM
[9] = second compound 0.316 µM, first compound 0.316 µM
[10] = second compound 0.316 µM, first compound 1 µM
[11] = second compound 0.316 µM, first compound 3.16 µM
[12] = second compound 0.316 µM, first compound 10 µM
[13] = second compound 1 µM, first compound 0.0316 µM
[14] = second compound 1 µM, first compound 0.1 µM
[15] = second compound 1 µM, first compound 0.316 µM
[16] = second compound 1 µM, first compound 1 µM
[17] = second compound 1 µM, first compound 3.16 µM
[18] = second compound 1 µM, first compound 10 µM
[19] = second compound 3.16 µM, first compound 0.0316 µM
[20] = second compound 3.16 µM, first compound 0.1 µM
[21] = second compound 3.16 µM, first compound 0.316 µM
[22] = second compound 3.16 µM, first compound 1 µM
[23] = second compound 3.16 µM, first compound 3.16 µM
[24] = second compound 3.16 µM, first compound 10 µM
[25] = second compound 10 µM, first compound 0.0316 µM
[26] = second compound 10 µM, first compound 0.1 µM
[27] = second compound 10 µM, first compound 0.316 µM
[28] = second compound 10 µM, first compound 1 µM
[29] = second compound 10 µM, first compound 3.16 µM
[30] = second compound 10 µM, first compound 10 µM
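Note: spheroids exposed to compounds for seven days before readout.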

COc1cc(Nc2ncc3c(n2)-c2ccc(Cl)cc2C(c2c(F)cccc2OC)=NC3)ccc1C(=O)O + C=CC(=O)N1CCN(c2nc(=O)n(-c3c(C)ccnc3C(C)C)c3nc(-c4c(O)cccc4F)c(F)cc23)C(C)C1
IC50 (second compound 0.1 µM): < 0.0316 µM | IC50 (second compound 0.316 µM): < 0.0316 µM | IC50 (second compound 1 µM): < 0.0316 µM | IC50 (second compound 3.16 µM): < 0.0316 µM | IC50 (second compound 10 µM): < 0.0316 µM | viability, T/C [1]: 29% | viability, T/C [2]: 18.9% | viability, T/C [3]: 20.6% | viability, T/C [4]: 42.2% | viability, T/C [5]: 61.3% | viability, T/C [6]: 39.2% | viability, T/C [7]: 45.5% | viability, T/C [8]: 34.7% | viability, T/C [9]: 50.7% | viability, T/C [10]: 59.3% | viability, T/C [11]: 42.7% | viability, T/C [12]: 37.5% | viability, T/C [13]: 14.8% | viability, T/C [14]: 32.8% | viability, T/C [15]: 54.8% | viability, T/C [16]: 69.5% | viability, T/C [17]: 53.1% | viability, T/C [18]: 42.8% | viability, T/C [19]: 30.7% | viability, T/C [20]: 32% | viability, T/C [21]: 48.5% | viability, T/C [22]: 37.5% | viability, T/C [23]: 40.9% | viability, T/C [24]: 35.7% | viability, T/C [25]: 29.8% | viability, T/C [26]: 39.5% | viability, T/C [27]: 33.7% | viability, T/C [28]: 35.4% | viability, T/C [29]: 36.8% | viability, T/C [30]: 29.3%

COc1cc2nccc(Oc3ccc(NC(=O)C4(C(=O)Nc5ccc(F)cc5)CC4)cc3)c2cc1OC + C=CC(=O)N1CCN(c2nc(=O)n(-c3c(C)ccnc3C(C)C)c3nc(-c4c(O)cccc4F)c(F)cc23)C(C)C1
IC50 (second compound 0.1 µM): 1.69 µM | IC50 (second compound 0.316 µM): 1.65 µM | IC50 (second compound 1 µM): 1.61 µM | IC50 (second compound 3.16 µM): 1.19 µM | IC50 (second compound 10 µM): < 0.0316 µM | viability, T/C [1]: 99.4% | viability, T/C [2]: 98.3% | viability, T/C [3]: 90.7% | viability, T/C [4]: 78.6% | viability, T/C [5]: 13.2% | viability, T/C [6]: 18.1% | viability, T/C [7]: 93.2% | viability, T/C [8]: 92.2% | viability, T/C [9]: 86.4% | viability, T/C [10]: 75.9% | viability, T/C [11]: 9.48% | viability, T/C [12]: 22.8% | viability, T/C [13]: 83.2% | viability, T/C [14]: 80.7% | viability, T/C [15]: 73.2% | viability, T/C [16]: 76.7% | viability, T/C [17]: 10.7% | viability, T/C [18]: 14.3% | viability, T/C [19]: 62.1% | viability, T/C [20]: 64.5% | viability, T/C [21]: 58.6% | viability, T/C [22]: 56.4% | viability, T/C [23]: 10.2% | viability, T/C [24]: 16.6% | viability, T/C [25]: 30.1% | viability, T/C [26]: 38.1% | viability, T/C [27]: 36% | viability, T/C [28]: 30.1% | viability, T/C [29]: 7.88% | viability, T/C [30]: 9.17%

CC(=O)Nc1cccc(-n2c(=O)n(C3CC3)c(=O)c3c(Nc4ccc(I)cc4F)n(C)c(=O)c(C)c32)c1 + COc1cc2nc(C)nc(NC(C)c3cc(N)cc(C(F)(F)F)c3)c2cc1OC1CCOC1
IC50 (second compound 0.1 µM): < 0.0001 µM | IC50 (second compound 0.316 µM): < 0.0001 µM | IC50 (second compound 1 µM): < 0.0001 µM | IC50 (second compound 3.16 µM): < 0.0001 µM | IC50 (second compound 10 µM): < 0.0001 µM | viability, T/C (second compound 0.1 µM, first compound 0.0001 µM): 26.5% | viability, T/C (second compound 0.1 µM, first compound 0.000316 µM): 12.7% | viability, T/C (second compound 0.1 µM, first compound 0.001 µM): 8.13% | viability, T/C (second compound 0.1 µM, first compound 0.00316 µM): 7.1% | viability, T/C (second compound 0.1 µM, first compound 0.01 µM): 6.58% | viability, T/C [1]: 5.51% | viability, T/C (second compound 0.316 µM, first compound 0.0001 µM): 19.8% | viability, T/C (second compound 0.316 µM, first compound 0.000316 µM): 10.8% | viability, T/C (second compound 0.316 µM, first compound 0.001 µM): 8.06% | viability, T/C (second compound 0.316 µM, first compound 0.00316 µM): 7.58% | viability, T/C (second compound 0.316 µM, first compound 0.01 µM): 6.23% | viability, T/C [7]: 4.76% | viability, T/C (second compound 1 µM, first compound 0.0001 µM): 18% | viability, T/C (second compound 1 µM, first compound 0.000316 µM): 8.51% | viability, T/C (second compound 1 µM, first compound 0.001 µM): 7.77% | viability, T/C (second compound 1 µM, first compound 0.00316 µM): 6.73% | viability, T/C (second compound 1 µM, first compound 0.01 µM): 5.93% | viability, T/C [13]: 4.86% | viability, T/C (second compound 3.16 µM, first compound 0.0001 µM): 14.4% | viability, T/C (second compound 3.16 µM, first compound 0.000316 µM): 11% | viability, T/C (second compound 3.16 µM, first compound 0.001 µM): 8.06% | viability, T/C (second compound 3.16 µM, first compound 0.00316 µM): 5.6% | viability, T/C (second compound 3.16 µM, first compound 0.01 µM): 5.05% | viability, T/C [19]: 4.65% | viability, T/C (second compound 10 µM, first compound 0.0001 µM): 5.99% | viability, T/C (second compound 10 µM, first compound 0.000316 µM): 4.73% | viability, T/C (second compound 10 µM, first compound 0.001 µM): 4.46% | viability, T/C (second compound 10 µM, first compound 0.00316 µM): 3.12% | viability, T/C (second compound 10 µM, first compound 0.01 µM): 4.29% | viability, T/C [25]: 3.2%
